Assay [1] addresses T1, DRB1*1501 (DR2w2b) (Homo sapiens, UniProt P01903+P01911).
T1 construct: expressed in transfected cells; host or cells: transfected fibroblasts L466.1
The assay can be described thus: biochemical. It counts as binding.

Assay [2] deals with T2, DRB1*0701 (DR7) (Homo sapiens, UniProt P01903+P01911, A100R/A102G/A103Q/D57E/D86V/E43K/F76Y/K127E/L162R/M171V/P40G/Q125H/Q99D/R33Q/R42Y/R54Q/S133A/S66F/T210M/V115G/Y107V/Y59L/Y89S).
T2 construct: Epstein-Barr virus (EBV) transformed homozygous cell lines were used as sources; endogenous in cells; host or cells: PITOUT (EBV-transformed homozygous B cell line)
The assay can be described thus: biochemical. Type of assay: binding.

Assay [3] concerns the target T3, DRB1*1201 (DR5w12) (Homo sapiens, UniProt P01903+P01911, A100R/A169T/D57E/D86V/F55L/H45Y/K41T/L162R/M171V/P40S/Q125H/Q178H/Q39Y/Q99D/R42G/S66L/T262R/V114A/V67L/W38E/Y59H/Y61H/Y89S).
T3 construct: Epstein-Barr virus (EBV) transformed homozygous cell lines were used as sources; endogenous in cells; host or cells: Herluf (EBV-transformed homozygous B cell line)
The assay can be described thus: biochemical. It counts as binding.

The target in assay [4] is T4, DRB1*1101 (DR5w11) (Homo sapiens, UniProt P01903+P01911, A100R/A169T/A87E/I96F/K41T/L162R/M171V/P40S/Q125H/Q178H/Q39Y/Q99D/R42S/S66Y/T262R/V115G/W38E).
T4 construct: Epstein-Barr virus (EBV) transformed homozygous cell lines were used as sources; endogenous in cells; host or cells: SWEIG (EBV-transformed homozygous B cell line)
The assay can be described thus: biochemical. Type of assay: binding.

The target of assay [5] is T5, DRB1*0301 (DR3w17) (Homo sapiens, UniProt P01903+P01911, A100K/A102G/A103R/A169T/F55Y/I96L/K41T/L162R/M171V/P40S/Q125H/Q178H/Q39Y/R42S/S66N/T106N/T262R/W38E/Y61H). As to the kind of experiment: biochemical. As to conditions: Binding Capacity (IC50% nM) DR3.
For assay [6], the target named is T5, DRB1*0301 (DR3w17). As to conditions: read-out: Binding Capacity (IC 50% nM) Other Alleles DR3.
For assay [7], the target named is T6, DRB1*0802 (DR8w2) (Homo sapiens, UniProt P01903+P01911, A100R/A103L/A169T/F76Y/H45Y/I96F/K41T/L162R/M171V/P40S/Q125H/Q178H/Q39Y/Q99D/R218S/R42G/S66Y/V115G/W38E).
T6 construct: Epstein-Barr virus (EBV) transformed homozygous cell lines were used as sources; endogenous in cells; host or cells: OLL (EBV-transformed homozygous B cell line)
As to the kind of experiment: biochemical. It counts as binding.

Assay [8] has as its target T7, DRB5*0101 (DR2w2a) (Homo sapiens, UniProt P01903+Q30154).
T7 construct: Epstein-Barr virus (EBV) transformed homozygous cell lines were used as sources; endogenous in cells; host or cells: GM3107 (EBV-transformed homozygous B cell line)
As to the kind of experiment: biochemical. Type of assay: binding.

Assay [9] deals with T8, DRB1*0901 (DR9) (Homo sapiens, UniProt P01903+P01911, A100R/A103E/D57H/D86V/F55Y/F60I/F76Y/I96F/K127E/L162R/M171V/P40D/Q125H/Q99R/R33Q/R42F/S133A/S66N/T210M/V115G/W38K/Y107V/Y59G/Y89S).
T8 construct: Epstein-Barr virus (EBV) transformed homozygous cell lines were used as sources; endogenous in cells
The assay can be described thus: biochemical. Type of assay: binding.

Assay [10] has as its target T9, DRB1*0101 (DR1) (Homo sapiens, UniProt P01903+P01911, A100R/D57E/F55L/F60I/F76Y/I96L/L162R/M171V/P40L/Q125E/R42F/V115G/Y59C).
T9 construct: Epstein-Barr virus (EBV) transformed homozygous cell lines were used as sources; endogenous in cells; host or cells: LG2 (EBV-transformed homozygous B cell line)
The assay can be described thus: biochemical. It counts as binding.

For assay [11], the target named is T10, DRB1*0405 (DR4w15) (Homo sapiens, UniProt P01903+P01911, A100R/A169T/D86S/F76Y/I96L/K127E/L162R/M171V/N62H/P40V/Q125Y/R42H/S133A/S149N/S66Y/V115G/V209L/W38E).
T10 construct: Epstein-Barr virus (EBV) transformed homozygous cell lines were used as sources; endogenous in cells; host or cells: KT3 (EBV-transformed homozygous B cell line)
The assay can be described thus: biochemical. It counts as binding.

For assay [12], the target named is T11, DRB1*1302 (DR6w19) (Homo sapiens, UniProt P01903+P01911, A100E/A169T/K41T/L162R/M171V/P40S/Q125H/Q178H/Q39Y/Q99D/R42S/S66N/T262R/V115G/W38E/Y61H).
T11 construct: Epstein-Barr virus (EBV) transformed homozygous cell lines were used as sources; the source of Class II molecules the EBV transformed homozygous cell line H0301; endogenous in cells; host or cells: H0301 (EBV-transformed homozygous B cell line)
The assay can be described thus: biochemical. Type of assay: binding.

For assay [13], the target named is T12, DRB1*0401 (DR4w4) (Homo sapiens, UniProt P01903+P01911, A100K/A169T/F76Y/I96L/K127E/L162R/M171V/N62H/P40V/Q125Y/R42H/S133A/S149N/S66Y/V115G/V209L/W38E).
T12 construct: Epstein-Barr virus (EBV) transformed homozygous cell lines were used as sources; endogenous in cells; host or cells: PREISS (EBV-transformed homozygous B cell line)
As to the kind of experiment: biochemical. Type of assay: binding.

Setting [14] is: Binding Capacity (IC50% nM) DR2w2b.
Setting [15] is: Binding Capacity (IC 50% nM) Other Alleles DR2w2b.
Where [16] appears, read: Binding Capacity (IC 50% nM) DR1,4,7 DR7.
[17] abbreviates: Binding Capacity (IC50% nM) DR5w12.
Setting [18] is: Binding Capacity (IC50% nM) DR5w11.
The mark [19] stands for this setting: read-out: Binding Capacity (IC 50% nM) Other Alleles DR5w11.
Setting [20] is: Binding Capacity (IC50% nM) DR8w2.
Setting [21] is: read-out: Binding Capacity (IC 50% nM) Other Alleles DR8w2.
[22] abbreviates: Binding Capacity (IC50% nM) DR2w2a.
Setting [23] is: Binding Capacity (IC 50% nM) Other Alleles DR2w2a.
Setting [24] is: Binding Capacity (IC50% nM) DR9.
[25] abbreviates: Binding Capacity (IC 50% nM) Other Alleles DR9.
Where [26] appears, read: Binding Capacity (IC50% nM) DR1.
Setting [27] is: Binding Capacity (IC 50% nM) DR1,4,7 DRB1.
Setting [28] is: Binding Capacity (IC50% nM) DR4w15.
Where [29] appears, read: Binding Capacity (IC 50% nM) Other Alleles DR4w15.
The mark [30] stands for this setting: Binding Capacity (IC50% nM) DR6w19.
[31] abbreviates: read-out: Binding Capacity (IC 50% nM) Other Alleles DR6w19.
Setting [32] is: read-out: Binding Capacity (IC 50% nM) DR1,4,7 DR4w4.
Where [33] appears, read: read-out: Binding Capacity (IC 50% nM) Other Alleles DR5w12.
The mark [34] stands for this setting: read-out: Binding Capacity (IC 50% nM) Other Alleles DR2w2a.
Where [35] appears, read: read-out: Binding Capacity (IC 50% nM) Other Alleles DR4w15.
[36] abbreviates: read-out: Binding Capacity (IC 50% nM) Other Alleles DR2w2b.
[37] abbreviates: Binding Capacity (IC 50% nM) DR1,4,7 DR4w4.

Where two headings read alike, the source gives them in different places. No end group written: not given here.

Data on 4 molecules can be found in patent US6413517B1, “Identification of broadly reactive DR restricted epitopes” (Epimmune, Inc., priority 1997, dated 2002).

T4 sequence (P01903 26-254, other chains not shown): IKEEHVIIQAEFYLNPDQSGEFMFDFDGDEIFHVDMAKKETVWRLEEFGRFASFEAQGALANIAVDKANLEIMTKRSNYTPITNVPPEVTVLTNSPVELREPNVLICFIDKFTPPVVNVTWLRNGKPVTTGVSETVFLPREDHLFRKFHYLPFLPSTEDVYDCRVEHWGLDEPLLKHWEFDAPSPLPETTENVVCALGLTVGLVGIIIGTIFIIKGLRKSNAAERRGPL

GPPTALRSFGFAFGYM [Peptide 1136.29]: the IC50 is 1.1 nM in [1] (setting [14]); less than 1000 nM in [1] (setting [15]); less than 1000 nM in assay [2] (setting [16]); 1000 nM in [3] (setting [17]); less than 1000 nM in assay [3] (Binding Capacity (IC 50% nM) Other Alleles DR5w12); 6250 nM in assay [4] (setting [18]). Besides, the IC50 in assay [4] (setting [19]) was more than 1000 nM; in [5], more than 10000 nM; in assay [6], more than 1000 nM; in assay [7] (setting [20]), 2970 nM; in assay [7] (setting [21]) it was more than 1000 nM; in assay [8] (setting [22]) it was 468 nM. In addition, the IC50 in assay [8] (setting [23]) was less than 1000 nM; in assay [9] (setting [24]), 183 nM; in assay [9] (setting [25]) it was less than 1000 nM; in [10] (setting [26]), 32 nM; in [10] (setting [27]) it was less than 1000 nM; in assay [11] (setting [28]), 745 nM. Besides, the IC50 was less than 1000 nM in [11] (setting [29]); more than 10000 nM in [12] (setting [30]); more than 1000 nM in [12] (setting [31]); 4330 nM in [13] (Binding Capacity (IC50% nM) DR4w4); more than 1000 nM in assay [13] (setting [32]).

For `CC(C)C[C@H](NC(=O)CNC(=O)[C@H](C)NC(=O)[C@@H](N)CC(C)C)C(=O)N[C@@H](CC(C)C)C(=O)NCC(=O)N[C@@H](CC(N)=O)C(=O)N[C@H](C(=O)N[C@@H](CO)C(=O)N[C@H](C(=O)N[C@H](C(=O)N[C@@H](CC(C)C)C(=O)N[C@@H](CC(C)C)C(=O)NCC(=O)NCC(=O)O)C(C)C)[C@@H](C)O)C(C)C` [Peptide F107.10], the IC50 was less than 1000 nM in assay [1] (setting [15]); less than 1000 nM in [2] (setting [16]); more than 10000 nM in assay [3] (setting [17]); more than 1000 nM in [3] (setting [33]); more than 10000 nM in assay [4] (setting [18]); more than 1000 nM in assay [4] (setting [19]). Moreover, the IC50 was more than 10000 nM in assay [5]; more than 1000 nM in assay [6]; more than 10000 nM in assay [7] (setting [20]); more than 1000 nM in [7] (setting [21]); more than 10000 nM in assay [8] (setting [22]); more than 1000 nM in assay [8] (setting [34]). Moreover, the IC50 in assay [9] (setting [25]) was less than 1000 nM; in assay [10] (setting [27]) it was less than 1000 nM; in [11] (setting [35]), more than 1000 nM; in assay [12] (Binding Capacity (IC 50% nM) Other Alleles DR6w19) it was less than 1000 nM; in [13] (setting [32]), more than 1000 nM.

Take RVYQEPQVSPPQRAET [Peptide 1136.59.01a]: the IC50 in [1] (setting [14]) was more than 10000 nM; in assay [1] (setting [36]), more than 1000 nM; in [2] (Binding Capacity (IC50% nM) DR7), more than 10000 nM; in assay [2] (read-out: Binding Capacity (IC 50% nM) DR1,4,7 DR7) it was more than 1000 nM; in [3] (setting [17]), more than 10000 nM; in assay [3] (setting [33]) it was more than 1000 nM. Further, the IC50 is more than 10000 nM in assay [4] (setting [18]); more than 1000 nM in assay [4] (setting [19]); more than 10000 nM in assay [5]; more than 1000 nM in [6]; more than 10000 nM in [7] (setting [20]); more than 1000 nM in assay [7] (setting [21]). The IC50 in assay [8] (setting [23]) is less than 1000 nM; in assay [9] (setting [24]) it was more than 10000 nM; in assay [9] (read-out: Binding Capacity (IC 50% nM) Other Alleles DR9) it was more than 1000 nM; in [10] (setting [26]), 130 nM; in assay [10] (setting [27]) it was less than 1000 nM; in [11] (setting [28]), 3140 nM. Further, the IC50 in [11] (setting [35]) is more than 1000 nM; in assay [12] (setting [30]), more than 10000 nM; in assay [12] (setting [31]), more than 1000 nM; in assay [13] (setting [37]), less than 1000 nM.

In the case of `CC(C)[C@H](NC(=O)[C@H](CO)NC(=O)[C@@H](NC(=O)[C@H](C)NC(=O)[C@H](CO)NC(=O)[C@H](CO)NC(=O)[C@H](C)NC(=O)[C@H](C)NC(=O)[C@H](Cc1ccc(O)cc1)NC(=O)[C@@H](NC(=O)[C@H](CO)NC(=O)CNC(=O)[C@H](CCC(N)=O)NC(=O)[C@@H]1CCCN1C(=O)[C@@H](N)CCC(=O)O)[C@@H](C)O)[C@@H](C)O)C(=O)N[C@@H](CC(=O)O)C(=O)O` [Peptide 1136.71], the IC50 in assay [1] (setting [14]) was more than 10000 nM; in [1] (setting [36]) it was more than 1000 nM; in assay [2] (setting [16]), less than 1000 nM; in [3] (setting [17]) it was more than 10000 nM; in assay [3] (setting [33]), more than 1000 nM; in assay [4] (setting [19]), more than 1000 nM. Also, the IC50 in assay [5] was more than 10000 nM; in assay [6], more than 1000 nM; in assay [7] (setting [20]), more than 10000 nM; in assay [7] (setting [21]), more than 1000 nM; in assay [8] (setting [34]) it was more than 1000 nM; in [9] (setting [25]) it was less than 1000 nM. Moreover, the IC50 in assay [10] (setting [27]) is less than 1000 nM; in assay [11] (setting [29]), less than 1000 nM; in assay [12] (setting [30]), more than 10000 nM; in assay [12] (setting [31]), more than 1000 nM; in assay [13] (setting [37]), less than 1000 nM.
